ChEMBL document CHEMBL3822355, “Synthesis and evaluation of substituted 4-(N-benzylamino)cinnamate esters as potential anti-cancer agents and HIV-1 integrase inhibitors” (Bioorg Med Chem Lett, 2016)

What was measured:
[1] = system: HeLa; assay: Anti-cancer activity against human HeLa cells assessed as reduction in cell viability after 72 hrs by WST-1 assay; assay type: functional, cell-based
[2] = system: MDA-MB-231; assay: Anti-cancer activity against human MDA-MB-231 cells assessed as reduction in cell viability after 72 hrs by WST-1 assay; assay type: functional, cell-based; conditions: MDA-MB-231, 72 h
[3] = Cytotoxicity against HEK293 cells assessed as cell viability at 100 uM after 48 hrs by resazurin assay; assay type: cell-based; conditions: human, read-out: Activity

Structure (SMILES)	IC50 [1] [µM]	IC50 [2] [µM]	viability at 48 h, 100 µM [3] [%]
COC(=O)/C=C/c1ccc(NCc2cc(Cl)ccc2O)cc1	8.56	86.4	92.4
COC(=O)/C=C/c1ccc(NCc2cccc(O)c2O)cc1	68.2	32.6	82.3
COC(=O)/C=C/c1ccc(NCc2cc(Br)ccc2O)cc1	7.82	109	98.1
COC(=O)/C=C/c1ccc(NCc2ccc(O)c(O)c2)cc1	78.1	36.6	114
COC(=O)/C=C/c1ccc(NCc2cc(Cl)cc(Cl)c2O)cc1	25.9	9.61	107
COC(=O)/C=C/c1ccc(NCc2cc(Br)cc(Br)c2O)cc1	35.4	11.5	114
COC(=O)/C=C/c1ccc(NCc2cc([N+](=O)[O-])ccc2O)cc1	16	17.4	108

Now those with a lower IC50 [1], led by results:

IC50 [1] [µM]	IC50 [2] [µM]	Structure (SMILES)	viability at 48 h, 100 µM [3] [%]
7.17	31.7	COC(=O)/C=C/c1ccc(NCc2ccccc2O)cc1	94.4
3.04	73.7	COC(=O)/C=C/c1ccc(NCc2cccc(OC)c2O)cc1	114
0.0199	–	CC(=O)O[C@H]1C(=O)[C@@]2(C)[C@H]([C@H](OC(=O)c3ccccc3)[C@]3(O)C[C@H](OC(=O)[C@H](O)[C@@H](NC(=O)c4ccccc4)c4ccccc4)C(C)=C1C3(C)C)[C@]1(OC(C)=O)CO[C@@H]1C[C@@H]2O [PACLITAXEL]	–
